Assay results published in patent publication EP1561465A2, “Methods of use of fluoroquinolone compounds against bacteria” (LG Life Sciences, Ltd., priority 1999, dated 2001).
Values after ≈ are worked out from the molar mass of the structure shown. Values joined by “and” are separate entries in the source; they are usually repeats but may differ in a detail not shown here. Equal values may be shown once. Read-outs that look alike come from different tables or passages of the source.

What was measured:
Format in all cases: cell-based
Citrobacter freundii = experiment: MIC by NCCLS broth microdilution, 1100 Japanese clinical isolates 1997-1998; settings: Citrobacter freundii (n=39)
Klebsiella pneumoniae [1] = experiment: as above; settings: Klebsiella pneumoniae (n=35)
Serratia marcescens = experiment: as above
[2] = test system: Gram negative anaerobic pathogens and facultative anaerobic pathogens; experiment: MIC by agar dilution, Brucella HK agar with 5% laked sheep blood, anaerobic reference strains
Pseudomonas aeruginosa = experiment: MIC by agar dilution (NCCLS), 322 nosocomial Gram negative isolates, Athens 1998; settings: n = 57 isolates
Klebsiella pneumoniae [3] = experiment: as above; settings: n = 56 isolates
Proteus mirabilis = experiment: as above; settings: Proteus mirabilis; n = 57 isolates
Enterobacter spp. = experiment: as above; settings: n = 57 isolates
Acinetobacter spp. = experiment: as above; settings: n = 38 strains
Staphylococcus aureus = experiment: MIC by agar macrodilution (NCCLS), 373 Gram positive isolates, Athens 1998; settings: Methicillin-susceptible Staphylococcus aureus (n = 85)

## CO/N=C1\CN(c2nc3c(cc2F)c(=O)c(C(=O)O)cn3C2CC2)CC1CN (racemic) [Gemifloxacin, (R,S)-7-(3-aminomethyl-4-methoxyiminopyrrolidin-1-yl)-1-cyclopropyl-6-fluoro-4-oxo-1,4-dihydro-1,8-naphthyridine-3-carboxylic acid]
Citrobacter freundii
  MIC90: 2 µg/mL (≈ 5.14 µM)
  MIC Range: 0.016 to 4 µg/mL
Klebsiella pneumoniae [1]
  MIC50: 0.032 µg/mL (≈ 0.0822 µM)
  MIC Range: 0.016 to 1 µg/mL
Klebsiella pneumoniae [1]; read-out: MIC90
  MIC90: 0.063 µg/mL (≈ 0.162 µM)
Serratia marcescens; Serratia marcescens
  MIC50: 0.125 µg/mL (≈ 0.321 µM)
Serratia marcescens; Serratia marcescens (n=30)
  MIC90: 0.5 µg/mL (≈ 1.28 µM)
  MIC Range: 0.063 to 128 µg/mL
[2]
  MIC: 1 µg/mL and 0.125 µg/mL
[2]; Bacteroides eggerthii, ATCC27754, Bacteroides eggerthii ATCC27754, read-out: MIC
  MIC: 4 µg/mL (≈ 10.3 µM)
[2]; Bacteroides fragilis, ATCC25285, Bacteroides fragilis ATCC25285, read-out: MIC
  MIC: 0.5 µg/mL (≈ 1.28 µM)
[2]; Bacteroides fragilis, Bacteroides fragilis GA15562, read-out: MIC
  MIC: 0.25 µg/mL (≈ 0.642 µM)
[2]; Bacteroides fragilis, Bacteroides fragilis GA-I0558, read-out: MIC
  MIC: 0.5 µg/mL (≈ 1.28 µM)
[2]; Bacteroides fragilis, Bacteroides fragilis GA-I7955, read-out: MIC
  MIC: 2 µg/mL (≈ 5.14 µM)
[2]; Bacteroides fragilis, Bacteroides fragilis GAI10150, read-out: MIC
  MIC: 0.5 µg/mL (≈ 1.28 µM)
[2]; Bacteroides fragilis, Bacteroides fragilis GAI30079, read-out: MIC
  MIC: 8 µg/mL (≈ 20.5 µM)
[2]; Bacteroides fragilis, Bacteroides fragilis GAI30144, read-out: MIC
  MIC: 2 µg/mL (≈ 5.14 µM)
[2]; Bacteroides fragilis, NCTC10581, Bacteroides fragilis NCTC10581, read-out: MIC
  MIC: 0.5 µg/mL (≈ 1.28 µM)
[2]; Bacteroides ovatus, ATCC8483, Bacteroides ovatus ATCC8483, read-out: MIC
  MIC: 1 µg/mL (≈ 2.57 µM)
[2]; Bacteroides thetaiotaomicron, ATCC29741, Bacteroides thetaiotaomicron ATCC29741, read-out: MIC
  MIC: 2 µg/mL (≈ 5.14 µM)
[2]; Bacteroides uniformis, ATCC8492, Bacteroides uniformis ATCC8492, read-out: MIC
  MIC: 1 µg/mL (≈ 2.57 µM)
[2]; Campylobacter gracilis, JCM8538, Campylobacter gracilis JCM8538, read-out: MIC
  MIC: ≤ 0.03 µg/mL
[2]; Campylobacter ureolyticus, NCTC10941, Bacteroides ureolyticus NCTC10941, read-out: MIC
  MIC: ≤ 0.03 µg/mL
[2]; Capnocytophaga ochracea, Capnocytophaga ochracea GAI5586, read-out: MIC
  MIC: ≤ 0.03 µg/mL
[2]; Desullomonas pigra DSM749, read-out: MIC
  MIC: 0.06 µg/mL (≈ 0.154 µM)
[2]; Fusobacterium necrophorum, ATCC25286, Fusobacterium necrophorum ATCC25286, read-out: MIC
  MIC: 0.25 µg/mL (≈ 0.642 µM)
[2]; Fusobacterium nucleatum, ATCC25586
  MIC: 0.125 µg/mL (≈ 0.321 µM)
[2]; Fusobacterium varium, ATCC8501, Fusobacterium varium ATCC8501, read-out: MIC
  MIC: 0.5 µg/mL (≈ 1.28 µM)
[2]; Hoylesella oralis, ATCC33269, Prevotella oralis ATCC33269, read-out: MIC
  MIC: 2 µg/mL (≈ 5.14 µM)
[2]; Parabacteroides distasonis, ATCC8503, Bacteroides distasonis ATCC8503, read-out: MIC
  MIC: 0.25 µg/mL (≈ 0.642 µM)
[2]; Phocaeicola vulgatus, ATCC8482, Bacteroides vulgatus ATCC8482, read-out: MIC
  MIC: 0.25 µg/mL (≈ 0.642 µM)
[2]; Porphylomonas gingivalis ATCC33277, read-out: MIC
  MIC: 0.06 µg/mL (≈ 0.154 µM)
[2]; Porphyromonas asaccharolytica, ATCC25260, Porphyromonas asaccharolytica ATCC25260, read-out: MIC
  MIC: 0.06 µg/mL (≈ 0.154 µM)
[2]; Prevotella bivia, ATCC29303, Prevotella bivia ATCC29303, read-out: MIC
  MIC: 16 µg/mL (≈ 41.1 µM)
[2]; Prevotella buccaeATCC33574, read-out: MIC
  MIC: 2 µg/mL (≈ 5.14 µM)
[2]; Prevotella corporis, Prevotella corporis GAI91000, read-out: MIC
  MIC: 1 µg/mL (≈ 2.57 µM)
[2]; Prevotella heparinolytica, ATCC35895
  MIC: 0.125 µg/mL (≈ 0.321 µM)
[2]; Prevotella melaninogenica, Prevotella melaninogenica GAI5490, read-out: MIC
  MIC: 1 µg/mL (≈ 2.57 µM)
[2]; Segatella oris, ATCC33573, Prevotella oris ATCC33573, read-out: MIC
  MIC: 0.5 µg/mL (≈ 1.28 µM)
[2]; Sutterella wadsworthensis, ATCC51579, Sutterella wadsworthensis ATCC51579, read-out: MIC
  MIC: 2 µg/mL (≈ 5.14 µM)
[2]; Veillonella dispar, ATCC17748, Veillonella dispar ATCC17748, read-out: MIC
  MIC: ≤ 0.03 µg/mL
[2]; Veillonella parvula, ATCC10790, Veillonella parvula ATCC10790, read-out: MIC
  MIC: 0.06 µg/mL (≈ 0.154 µM)
Pseudomonas aeruginosa
  MIC50: 1 µg/mL (≈ 2.57 µM)
  MIC90: > 64 µg/mL
Klebsiella pneumoniae [3]; Klebsiella pneumoniae
  MIC50: 0.06 µg/mL (≈ 0.154 µM)
  MIC90: 0.5 µg/mL (≈ 1.28 µM)
Klebsiella pneumoniae [3]
  MIC Range: ≤0.03 to 4 µg/mL
Proteus mirabilis
  MIC50: 0.25 µg/mL (≈ 0.642 µM)
  MIC90: 16 µg/mL (≈ 41.1 µM)
Enterobacter spp.; Enterobacter, read-out: MIC50
  MIC50: 0.06 µg/mL (≈ 0.154 µM)
Enterobacter spp.; Enterobacter, read-out: MIC90
  MIC90: 16 µg/mL (≈ 41.1 µM)
Enterobacter spp.
  MIC Range: ≤0.03 to 64 µg/mL
Acinetobacter spp.; Acinetobacter
  MIC50: 2 µg/mL (≈ 5.14 µM)
  MIC90: 32 µg/mL (≈ 82.2 µM)
Acinetobacter spp.
  MIC Range: 0.06 to 32 µg/mL
Staphylococcus aureus
  MIC Range: ≤0.03 to 4 µg/mL
Staphylococcus aureus; read-out: MIC50
  MIC50: 0.06 µg/mL (≈ 0.154 µM)
Staphylococcus aureus; read-out: MIC90
  MIC90: 0.125 µg/mL (≈ 0.321 µM)
